Common to all, as to assay type: cell-based
Assay [1] addresses T1, Gastrin/cholecystokinin type B receptor (Homo sapiens) (UniProt P32239).
T1 sequence (whole entry): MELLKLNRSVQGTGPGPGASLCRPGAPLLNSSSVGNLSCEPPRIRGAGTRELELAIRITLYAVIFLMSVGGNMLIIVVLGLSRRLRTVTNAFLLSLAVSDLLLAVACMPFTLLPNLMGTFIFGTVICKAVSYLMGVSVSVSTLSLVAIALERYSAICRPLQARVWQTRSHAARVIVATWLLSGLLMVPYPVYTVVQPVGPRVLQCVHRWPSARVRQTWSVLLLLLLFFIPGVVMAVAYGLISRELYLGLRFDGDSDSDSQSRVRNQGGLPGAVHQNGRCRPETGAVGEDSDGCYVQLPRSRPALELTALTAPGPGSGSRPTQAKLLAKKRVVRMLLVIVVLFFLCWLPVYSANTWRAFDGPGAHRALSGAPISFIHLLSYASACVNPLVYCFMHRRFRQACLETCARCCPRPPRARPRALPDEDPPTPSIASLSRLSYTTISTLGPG
In words: Displacement of Eu-DTPA-CCK8 from CCK2 receptor in HEK293 cells after 2 hrs by TRF assay relative to CCK4.

Assay [2] deals with T2, Gastrin/cholecystokinin type B receptor (Homo sapiens, UniProt P32239).
T2 sequence (P32239 whole entry): T1 sequence (whole entry)
In words: Displacement of Eu-DTPA-CCK8 from CCK2 receptor in HEK293 cells after 2 hrs by TRF assay.

A further assay deals with Melanocortin receptor 4 (Homo sapiens, UniProt P32245). The assay can be described thus: Binding affinity to MC4R in HEK293 cells.
Melanocortin receptor 4, sequence (P32245 whole entry): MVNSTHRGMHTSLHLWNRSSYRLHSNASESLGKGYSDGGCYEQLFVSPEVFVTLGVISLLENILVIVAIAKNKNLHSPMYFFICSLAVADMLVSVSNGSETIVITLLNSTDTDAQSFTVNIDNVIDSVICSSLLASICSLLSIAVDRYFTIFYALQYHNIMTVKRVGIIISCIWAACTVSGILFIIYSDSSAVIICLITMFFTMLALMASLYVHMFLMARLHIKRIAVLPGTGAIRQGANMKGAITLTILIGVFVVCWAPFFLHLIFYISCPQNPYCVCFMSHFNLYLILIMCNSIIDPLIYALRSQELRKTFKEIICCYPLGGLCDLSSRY

The compound `C#CCCC(=O)NCCCC[C@H](NC(C)=O)C(=O)N[C@@H](Cc1c[nH]c2ccccc12)C(=O)N(C)[C@@H](CCCC)C(=O)N[C@@H](CC(=O)O)C(=O)N[C@@H](Cc1ccccc1)C(=O)Nc1cn(CC(=O)NCCC(=O)NCCC(=O)NCCCC(CCCNC(=O)CCNC(=O)CCNC(=O)Cn2cc(NC(=O)[C@H](Cc3ccccc3)NC(=O)[C@H](CC(=O)O)NC(=O)[C@H](CCCC)N(C)C(=O)[C@H](Cc3c[nH]c4ccccc34)NC(=O)[C@H](CCCCNC(=O)CCC#C)NC(C)=O)nn2)(NC(=O)CNC(=O)CCNC(=O)CCNC(=O)Cn2cc(NC(=O)[C@H](Cc3ccccc3)NC(=O)[C@H](CC(=O)O)NC(=O)[C@H](CCCC)N(C)C(=O)[C@H](Cc3c[nH]c4ccccc34)NC(=O)[C@H](CCCCNC(=O)CCC#C)NC(C)=O)nn2)C(=O)NCCC(N)=O)nn1` registered a fold change (FC) in assay [1] of 2. The same compound registered an IC50 in assay [2] of 8.5 nM.
The corresponding values for `C#CCCC(=O)NCCCC[C@H](NC(C)=O)C(=O)N[C@@H](Cc1c[nH]c2ccccc12)C(=O)N(C)[C@@H](CCCC)C(=O)N[C@@H](CC(=O)O)C(=O)N[C@@H](Cc1ccccc1)C(=O)Nc1cn(CC(=O)NCCC(=O)NCCCC(CCCNC(=O)CCNC(=O)Cn2cc(NC(=O)[C@H](Cc3ccccc3)NC(=O)[C@H](CC(=O)O)NC(=O)[C@H](CCCC)N(C)C(=O)[C@H](Cc3c[nH]c4ccccc34)NC(=O)[C@H](CCCCNC(=O)CCC#C)NC(C)=O)nn2)(NC(=O)CNC(=O)CCNC(=O)Cn2cc(NC(=O)[C@H](Cc3ccccc3)NC(=O)[C@H](CC(=O)O)NC(=O)[C@H](CCCC)N(C)C(=O)[C@H](Cc3c[nH]c4ccccc34)NC(=O)[C@H](CCCCNC(=O)CCC#C)NC(C)=O)nn2)C(=O)NCCC(N)=O)nn1` are 3 and 5.2 nM.
The corresponding values for `C#CCCC(=O)NCCCC[C@H](NC(C)=O)C(=O)N[C@@H](Cc1c[nH]c2ccccc12)C(=O)N(C)[C@@H](CCCC)C(=O)N[C@@H](CC(=O)O)C(=O)N[C@@H](Cc1ccccc1)C(=O)Nc1cn(CC(=O)NCCCC(CCCNC(=O)Cn2cc(NC(=O)[C@H](Cc3ccccc3)NC(=O)[C@H](CC(=O)O)NC(=O)[C@H](CCCC)N(C)C(=O)[C@H](Cc3c[nH]c4ccccc34)NC(=O)[C@H](CCCCNC(=O)CCC#C)NC(C)=O)nn2)(NC(=O)CNC(=O)Cn2cc(NC(=O)[C@H](Cc3ccccc3)NC(=O)[C@H](CC(=O)O)NC(=O)[C@H](CCCC)N(C)C(=O)[C@H](Cc3c[nH]c4ccccc34)NC(=O)[C@H](CCCCNC(=O)CCC#C)NC(C)=O)nn2)C(=O)NCCC(N)=O)nn1` are 1.5 and 12 nM.
The compound `C#CCCC(=O)NCCCC[C@H](NC(C)=O)C(=O)N[C@@H](Cc1c[nH]c2ccccc12)C(=O)N(C)[C@@H](CCCC)C(=O)N[C@@H](CC(=O)O)C(=O)N[C@@H](Cc1ccccc1)C(N)=O` gave an IC50 in assay [2] of 16 nM. This counts as double-digit nanomolar.
Compound `C#CCCC(=O)NCCCC[C@H](NC(C)=O)C(=O)N[C@@H](CO)C(=O)N[C@@H](CCCC)C(=O)N[C@@H](CCC(=O)O)C(=O)N[C@@H](Cc1cnc[nH]1)C(=O)N[C@H](Cc1ccccc1)C(=O)N[C@@H](CCCNC(=N)N)C(=O)N[C@@H](Cc1c[nH]c2ccccc12)C(=O)Nc1cn(CC(=O)NCCCC(CCCNC(=O)Cn2cc(NC(=O)[C@H](Cc3c[nH]c4ccccc34)NC(=O)[C@H](CCCNC(=N)N)NC(=O)[C@@H](Cc3ccccc3)NC(=O)[C@H](Cc3cnc[nH]3)NC(=O)[C@H](CCC(=O)O)NC(=O)[C@H](CCCC)NC(=O)[C@H](CO)NC(=O)[C@H](CCCCNC(=O)CCC#C)NC(C)=O)nn2)(NC(=O)CNC(=O)Cn2cc(NC(=O)[C@H](Cc3c[nH]c4ccccc34)NC(=O)[C@H](CCCNC(=N)N)NC(=O)[C@@H](Cc3ccccc3)NC(=O)[C@H](Cc3cnc[nH]3)NC(=O)[C@H](CCC(=O)O)NC(=O)[C@H](CCCC)NC(=O)[C@H](CO)NC(=O)[C@H](CCCCNC(=O)CCC#C)NC(C)=O)nn2)C(=O)NCCC(N)=O)nn1` (stereo not given in full) gave an IC50 at Melanocortin receptor 4 of 12 nM.
`C#CCCC(=O)NCCCC[C@H](NC(C)=O)C(=O)N[C@@H](Cc1c[nH]c2ccccc12)C(=O)N(C)[C@@H](CCCC)C(=O)N[C@@H](CC(=O)O)C(=O)N[C@@H](Cc1ccccc1)C(=O)Nc1cn(CC(=O)NCC(=O)N2CCC[C@H]2C(=O)NCC(=O)NCCCC(CCCNC(=O)CNC(=O)[C@@H]2CCCN2C(=O)CNC(=O)Cn2cc(NC(=O)[C@H](Cc3ccccc3)NC(=O)[C@H](CC(=O)O)NC(=O)[C@H](CCCC)N(C)C(=O)[C@H](Cc3c[nH]c4ccccc34)NC(=O)[C@H](CCCCNC(=O)CCC#C)NC(C)=O)nn2)(NC(=O)CNC(=O)CNC(=O)[C@@H]2CCCN2C(=O)CNC(=O)Cn2cc(NC(=O)[C@H](Cc3ccccc3)NC(=O)[C@H](CC(=O)O)NC(=O)[C@H](CCCC)N(C)C(=O)[C@H](Cc3c[nH]c4ccccc34)NC(=O)[C@H](CCCCNC(=O)CCC#C)NC(C)=O)nn2)C(=O)NCCC(N)=O)nn1`: the fold change (FC) in assay [1] was 2.5. Moreover, the IC50 in assay [2] is 6 nM.

The values above are taken from ChEMBL document CHEMBL2385073, “Synthesis and evaluation of cholecystokinin trimers: a multivalent approach to pancreatic cancer detection and treatment” (Bioorg Med Chem Lett, 2013).
